Reference: article PMC9014415, “Repositioning of a Diaminothiazole Series Confirmed to Target the Cyclin-Dependent Kinase CRK12 for Use in the Treatment of African Animal Trypanosomiasis” (Journal of Medicinal Chemistry, 2022)

Tests used:
[1] = tested on: bloodstream T. brucei resistant lines R1-R3; assay: Sensitivity of compound 2-resistant T. brucei lines compared to wild-type; format: cell-based, Trypanosoma brucei
Experimental: To gain further insight into the molecular target(s) of this series, resistance was generated against compound 2 in a drug-sensitive clonal line of bloodstream T. brucei. Trypanosomes were cultured in the continuous presence of compound 2 for a total of 122 days. […] Following drug selection, resistant parasites were cloned by limiting dilution. The relative sensitivities of these cloned cell lines were established and compared to that of wild-type parasites. Resistant lines R1 and R3 were 10-fold resistant, while R2 was 90-fold resistant to compound 2 (Figure 4A). […] In addition, all three clones had lost a significant part of chromosome 10 and gained additional copies of a region of chromosome 8. All three resistant lines carried a mutation in Tb927.4.4590, a gene encoding a non-essential putative kinase and in Tb927.11.10300, encoding a hypothetical protein. Of particular note, all three clones (R1–3) shared a non-synonymous substitution (Gly492Ala) in Tb927.11.12310, the gene encoding CRK12. In addition, R2 harbored a second non-synonymous substitution (Leu482Phe) in CRK12 (Table S10). […]
in cattle). Blood from the donor animals, diluted with phosphate buffered glucose was used to infect recipient animals IV via the jugular vein. Infection was with approximately 100,000 fresh viable parasites. The compounds were given IM. Each injection was up to 10 mL and given in neck in the following order: left anterior third, right anterior third, left posterior third and right posterior third.
Animals over 240 kg required a fifth injection site for the IVP, and this was given in the left or right hind leg. Cattle were randomised to treatments. Parasitaemia was monitored 3 times per calendar week, though collection of blood and assessment of clinical symptoms. Blood samples were also […]
treatment). Cattle were also monitored for PCV, clinical symptoms, body weight and temperature […]
4. Mode of action studies
4.1 Resistant line generation […]
Sequencing reads (100 bp) were aligned to the Trypanosoma brucei TREU927 genome (v39; tritrypDB) using Bowtie210 and Samtools11 software. […]

T. b. brucei = assay: Acute T. b. brucei efficacy in mice; format: in vivo, Trypanosoma brucei brucei; details: 3 mg/kg bid po for 4 days
Experimental: (citrate, fumarate and phosphate) (Figure 9). These alternative salt forms of compound 2 were prepared and formulated in the best vehicle determined by injection site tolerability analysis (0.3M sodium acetate buffer, Kolliphor EL, N-methyl pyrrolidone, 2-pyrrolidone, and 11% water suitable for injection). Rat IM pharmacokinetics was then carried out with each salt to determine the salt form to use for efficacy. None of these salt forms offered any improvement in rat IM pharmacokinetic profile over the free base in the tolerated vehicle (Figure S7).
3. In vivo efficacy studies
The T. congolense (IL3000) and T. vivax (ILRAD V34) cell lines7, 8, both originating from Kenya, were used in the following in vivo mouse studies. For studies in cattle, either Trypanosoma congolense (savannah) KONT 2/133, 224) or T. vivax STIB 719 was used.
3.1 Mouse efficacy studies for T. brucei brucei.
Mouse efficacy studies for T. brucei brucei were carried out as previously detailed.9 3.2 NMRI mouse efficacy studies for T. congolense and T. vivax.
Mouse models of infections were carried out using standardized protocols. Briefly, 1 mL samples of cryopreserved T. congolense, or T. vivax-infected blood harvested directly from an infected mouse, were diluted with Hanks Balanced Salt Solution plus 20 mM glucose (HBSS+G) to 5 x 10^4 trypomastigotes/mL (5 x 105 for T. vivax). […]

T. congolense KONT 2/133 = assay: Cattle efficacy for compound 1, SC (Clinvet); format: in vivo, Trypanosoma congolense; details: for Animals negative for parasites / Animals positive for parasites: 5 mg/kg SC twice 12 h apart
From the text: However, following the cessation of treatment, parasitaemia quickly re-emerged to such an extent that after 4 days, all calves were positive. It should be noted that in this study, calves were infected with a highly virulent T. congolense isolate known to be resistant to established anti-trypanosomal agents diminazene and isometamidium. Testing compounds in this model represents a rigorous test of efficacy; thus, the observed reduction in parasite numbers in calves dosed with compound 1 was very encouraging. […]
3.3 Cattle efficacy for compound 1 (Clinvet)
In each of the cattle efficacy studies (3.3, 3.4 and 3.5), efficacy was assessed primarily on absence of recrudescence of parasitaemia for 100 days after treatment administration together with improvements in Packed Cell Volume, body weight and clinical signs of infected compared with uninfected animals. Assessment of parasitaemia was based on phase contrast buffy coat examinations and confirmation by PCR at 100 d.
Friesian-Holstein calves, weaned for at least 2 months and with a minimum age of 4 months, housed in a fly-proof building, were infected with Trypanosoma conglense (savannah) KONT 2/133, at a dose of 110,000 parasites (study day 0) via IV infusion. The parasites were obtained from a donor calf. This isolate is resistant to diminazene (20 mg/kg) and isometamidium (1 mg/kg) in cattle, and diminazene (7 mg/kg) and isometamidium (>1 mg/kg) in mice. Calves were parasitaemic by study day 6. Calves (n = 5) were treated with compound 1 (5 mg/kg, SC, twice 12 h apart) on study […]
day at 25 mg/ml in NMP/ 2-pyrrolidinone/ PEG400 water 10/40/30/20. Control groups were comprised of un-infected calves, infected but un-treated calves (n = 6) and calves treated with diminazene (n = 3) or isometamidium (n = 3). The calves were randomised to treatments. Calves were monitored daily for parasitaemia and packed cell volume (PCV) via blood sampling and through […]
One day after treatment, 80% of the animals in the treatment group were negative for parasites.
After 3 d, 100% of the animals in the treatment groups were negative for parasites. After 5 d, 40% of the animals were positive for parasites. […]

[2] = 5 mg/kg SC given twice at 12 h intervals

Row | Compound | Resistance compared to wild-type ([1]; resistant line R1) [fold] | Resistance compared to wild-type ([1]; resistant line R2) [fold] | Resistance compared to wild-type ([1]; resistant line R3) [fold] | Acute T. b. brucei efficacy in mice (T. b. brucei) | Parasitaemia in calves (T. congolense KONT 2/133; [2]) | Time after cessation of treatment until all calves were positive (T. congolense KONT 2/133; [2]) [days] | Animals negative for parasites (T. congolense KONT 2/133; after 3 d) [%] | Animals positive for parasites (T. congolense KONT 2/133; after 5 d) [%] | Animals positive for parasites (T. congolense KONT 2/133; after 6 d) [%] | Animals positive for parasites (T. congolense KONT 2/133; after 8 days) [%] | Animals negative for parasites (T. congolense KONT 2/133; one day after treatment) [%]
1 | CC(C)CS(=O)(=O)N[C@H]1CC[C@H](Nc2nc(N)c(C(=O)c3c(F)cc(CN(C)C)cc3F)s2)CC1 [Compound 2, N-(trans)-[4-[[4-Amino-5-[4-(dimethylaminomethyl)-2,6-difluoro-benzoyl]thiazol-2-yl]amino]cyclohexyl]-2-methyl-propane-1-sulfonamide] | 10 | 90 | 10 |  |  |  |  |  |  |  | 
2 | CC(C)CS(=O)(=O)N[C@H]1CC[C@H](Nc2nc(N)c(C(=O)c3c(F)cccc3F)s2)CC1 [Compound 1, N-((trans)-4-((4-Amino-5-(2,6-difluorobenzoyl)thiazol-2-yl)amino)cyclohexyl)-2-methylpropane-1-sulfonamide] |  |  |  | Cures 3 mg/kg bid po for 4 days | suppressed below the level of detection | 4 | 100 | 40 | 80 | 100 | 80
